Reference: patent publication US7199115B2, “17α-fluorosteroids, pharmaceutical compositions containing 17α-fluorosteroids and a method of making them” (Schering AG, priority 2004, dated 2007)
Read-outs that look alike come from different tables or passages of the source.

Legend:
[1] = target: T1, 5α-reductase-Type-2 (Homo sapiens, UniProt P31213); test: 5α-reductase-Type-2 activity in genital skin homogenates; format: biochemical; conditions: optimum conditions at pH=5.5
T1 construct: Under optimum conditions at pH=5.5 in genital skin homogenates; from tissue; host or cells: genital skin homogenates
T1 sequence (P31213 1-254): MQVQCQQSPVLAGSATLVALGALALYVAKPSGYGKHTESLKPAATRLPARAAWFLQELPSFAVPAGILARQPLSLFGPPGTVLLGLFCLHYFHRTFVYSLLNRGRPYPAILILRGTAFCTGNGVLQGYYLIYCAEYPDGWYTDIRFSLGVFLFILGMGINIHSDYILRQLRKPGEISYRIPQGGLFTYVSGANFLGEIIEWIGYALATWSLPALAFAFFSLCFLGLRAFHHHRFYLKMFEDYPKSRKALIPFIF
Excerpt: Subsequently experimental data for progesterone receptor binding, 5α-reductase-type-2 activity in genital skin homogenates and in vivo data in the case of the exemplary compound of the invention, (E)-17α-fluoro-3-oxo-estra-4-en-17β-carbaldehyde oxime, are reported here.

[2] = target: T2, PR-B (Homo sapiens, UniProt P06401); test: PR-B antagonisms and agonisms; format: cell-based
T2 sequence (P06401 1-933): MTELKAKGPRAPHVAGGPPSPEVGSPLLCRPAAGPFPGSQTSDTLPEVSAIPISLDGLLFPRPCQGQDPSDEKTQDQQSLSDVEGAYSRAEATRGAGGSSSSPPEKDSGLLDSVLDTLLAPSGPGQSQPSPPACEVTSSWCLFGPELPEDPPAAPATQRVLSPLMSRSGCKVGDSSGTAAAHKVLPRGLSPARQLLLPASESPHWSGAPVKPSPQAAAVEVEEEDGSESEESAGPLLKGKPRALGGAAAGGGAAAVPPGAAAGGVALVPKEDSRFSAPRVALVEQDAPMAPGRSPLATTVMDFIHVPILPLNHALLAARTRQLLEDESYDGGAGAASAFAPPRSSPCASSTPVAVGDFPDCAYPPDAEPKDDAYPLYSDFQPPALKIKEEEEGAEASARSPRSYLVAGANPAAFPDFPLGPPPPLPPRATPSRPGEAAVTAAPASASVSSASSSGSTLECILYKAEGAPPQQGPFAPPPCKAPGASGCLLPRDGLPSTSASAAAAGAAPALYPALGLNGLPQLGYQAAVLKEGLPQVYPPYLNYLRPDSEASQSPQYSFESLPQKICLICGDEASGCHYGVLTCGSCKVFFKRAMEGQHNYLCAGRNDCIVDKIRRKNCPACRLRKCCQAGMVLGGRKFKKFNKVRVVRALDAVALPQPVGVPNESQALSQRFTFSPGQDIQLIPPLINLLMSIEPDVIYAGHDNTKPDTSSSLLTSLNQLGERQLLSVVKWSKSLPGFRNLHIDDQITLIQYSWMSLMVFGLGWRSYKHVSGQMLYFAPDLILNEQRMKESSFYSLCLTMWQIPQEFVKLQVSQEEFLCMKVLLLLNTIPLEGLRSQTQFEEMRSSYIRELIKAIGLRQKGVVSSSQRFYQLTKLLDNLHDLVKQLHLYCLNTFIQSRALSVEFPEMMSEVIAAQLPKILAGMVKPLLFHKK

[3] = tested on: pregnancy maintenance; test: Gestagen activity in pregnancy maintenance test; format: in vivo; conditions: mouse
[4] = target: T3, Progesterone Receptor (Oryctolagus cuniculus, UniProt P06186); test: Binding to progesterone receptor, uterus cytosol, tracer 3H-ORG 2058; conditions: rabbit uterus cytosol, 0–4° C., 18 h, Progesterone=100%
T3 construct: Biological material: Uterus cytosol, rabbit, pressed; from tissue; host or cells: rabbit uterus cytosol
T3 sequence (P06186 1-930): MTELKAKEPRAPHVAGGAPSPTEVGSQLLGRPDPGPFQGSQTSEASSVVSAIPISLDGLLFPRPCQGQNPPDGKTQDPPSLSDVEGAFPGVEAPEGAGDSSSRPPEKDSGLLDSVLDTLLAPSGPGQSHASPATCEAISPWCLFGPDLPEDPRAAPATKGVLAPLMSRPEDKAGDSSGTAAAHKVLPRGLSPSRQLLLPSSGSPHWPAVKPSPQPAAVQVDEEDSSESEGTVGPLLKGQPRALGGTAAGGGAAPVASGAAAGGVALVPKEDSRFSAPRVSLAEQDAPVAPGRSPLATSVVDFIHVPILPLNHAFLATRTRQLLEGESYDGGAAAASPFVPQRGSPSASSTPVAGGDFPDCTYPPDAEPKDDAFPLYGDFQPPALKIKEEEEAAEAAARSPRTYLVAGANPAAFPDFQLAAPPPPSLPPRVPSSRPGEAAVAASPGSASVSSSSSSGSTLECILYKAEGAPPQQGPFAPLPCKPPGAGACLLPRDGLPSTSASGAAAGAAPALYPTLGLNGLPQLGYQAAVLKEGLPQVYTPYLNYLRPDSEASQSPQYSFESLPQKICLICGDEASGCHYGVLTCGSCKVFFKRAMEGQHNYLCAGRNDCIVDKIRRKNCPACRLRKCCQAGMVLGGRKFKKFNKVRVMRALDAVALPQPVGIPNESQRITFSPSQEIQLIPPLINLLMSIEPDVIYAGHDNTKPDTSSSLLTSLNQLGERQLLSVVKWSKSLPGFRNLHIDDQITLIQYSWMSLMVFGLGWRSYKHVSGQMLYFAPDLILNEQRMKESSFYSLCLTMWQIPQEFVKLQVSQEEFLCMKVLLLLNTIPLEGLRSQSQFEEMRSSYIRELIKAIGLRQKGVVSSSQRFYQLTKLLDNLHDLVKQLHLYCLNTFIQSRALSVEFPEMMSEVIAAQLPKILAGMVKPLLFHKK
Excerpt: Binding of Compound I to Progesterone Receptor

| Relative Binding affinity RBA [4] [%] | Structure (SMILES) | IC50 [1] [nM] | IC50 ([2]; PR-B agonism, read-out: Agonism IC50) [nM] | IC50 ([2]; PR-B antagonism, read-out: Antagonism IC50) [nM] | Rate of Maintained Gravidity ([3]; dosage 0.003 Mg/animal/day) | Rate of Maintained Gravidity ([3]; dosage 0.03 Mg/animal/day) | Rate of Maintained Gravidity ([3]; dosage 0.3 Mg/animal/day) |
| --- | --- | --- | --- | --- | --- | --- | --- |
| – | C[C@]12CCC3C4CCC(=O)C=C4CCC3C1CC[C@]2(F)/C=N/O (stereo partly drawn) [Compound 7, (E)-17α-fluoro-3-oxo-estra-4-en-17β-carbaldehyde oxime] | 245 | 0.25 | 0.339 | 0/3 | 2/2 | 3/3 |
| 100 | CC(=O)[C@H]1CC[C@H]2[C@@H]3CCC4=CC(=O)CC[C@]4(C)[C@H]3CC[C@]12C [Progesterone] | – | – | – | – | – | – |
